Reference: ChEMBL document CHEMBL3044841, “Synthesis and biological activities of Schiff bases of gabapentin with different aldehydes and ketones: a structureactivity relationship study” (Med Chem Res, 2012)
≈ marks a conversion by molar mass, not a printed value.

How the values were obtained:
[1] = tested on: Radical scavenging activity; assay: Antioxidant activity assessed as DPPH free radical scavenging activity at 150 ug/ml after 30 min relative to control; format: functional
[2] = tested on: Radical scavenging activity; assay: Antioxidant activity assessed as DPPH free radical scavenging activity after 30 min; format: functional
[3] = tested on: Radical scavenging activity; assay: Antioxidant activity assessed as DPPH free radical scavenging activity at 100 ug/ml after 30 min relative to control; format: functional
[4] = tested on: Radical scavenging activity; assay: Antioxidant activity assessed as DPPH free radical scavenging activity at 200 ug/ml after 30 min relative to control; format: functional
Rattus norvegicus [5] = assay: Anticonvulsant activity in Rattus norvegicus Wistar (rat) assessed as protection against maximal electroshock-induced seizure at 100 mg/kg, po administered 30 min before electroshock measured for 2 min relative to control; format: functional
Rattus norvegicus [6] = assay: Neurotoxicity in Rattus norvegicus Wistar (rat) assessed as minimal motor impairment at 100 mg/kg, po after 1 hr by rotorod test; format: toxicity, organism-based; parameters: dose 100 mg/kg, route oral; settings: in vivo
Rattus norvegicus [7] = assay: Neurotoxicity in Rattus norvegicus Wistar (rat) assessed as minimal motor impairment at 100 mg/kg, po after 0.5 hr by rotorod test; format: toxicity, organism-based; parameters: dose 100 mg/kg, route oral; settings: in vivo
Rattus norvegicus [8] = assay: Neurotoxicity in Rattus norvegicus Wistar (rat) assessed as minimal motor impairment at 100 mg/kg, po after 2 hr by rotorod test relative to control; format: toxicity, organism-based; parameters: dose 100 mg/kg, route oral; settings: in vivo
Rattus norvegicus [9] = assay: Neurotoxicity in Rattus norvegicus Wistar (rat) assessed as minimal motor impairment at 100 mg/kg, po after 2 hr by rotorod test; format: toxicity, organism-based; parameters: dose 100 mg/kg, route oral; settings: in vivo
Rattus norvegicus [10] = assay: Neurotoxicity in Rattus norvegicus Wistar (rat) assessed as minimal motor impairment at 100 mg/kg, po after 4 hr by rotorod test; format: toxicity, organism-based; parameters: dose 100 mg/kg, route oral; settings: in vivo

For `O=C(O)CC1(C/N=C/c2ccccn2)CCCCC1`, the Activity [1] was 50.3%, the IC50 [2] was 151.2 µg/mL (≈ 581 µM) and the Activity [3] was 40%. The Activity [4] was 59.7%.
`O=C(O)CC1(C/N=C/c2ccc(F)cc2)CCCCC1` was tested, and the Activity [1] was 53.8%, the IC50 [2] was 130.5 µg/mL (≈ 471 µM) and the Activity [3] was 44.7%. It also gave an Activity [4] of 62.8%.
In the case of `C/C(=N\CC1(CC(=O)O)CCCCC1)c1ccc2ccccc2c1`, the Activity (Rattus norvegicus [5]) is reported as 0.42%, the Activity [1] is reported as 37.2% and the IC50 [2] is reported as “Not Active”. For the same compound, the Activity [3] was 28.5%, the Activity [4] was 48.4% and the Activity (Rattus norvegicus [6]) was “Non-toxic”. The Activity (Rattus norvegicus [7]) was “Non-toxic” and the Activity (Rattus norvegicus [8]) was 25%.
For `O=C1O[C@H]([C@@H](O)CO)C(O)=C1O` [ASCORBIC ACID], the Activity [1] was 86.4%, the IC50 [2] was 8.6 µg/mL (≈ 48.8 µM) and the Activity [3] was 74.1%. The Activity [4] was 99.3%.
`C/C(=N\CC1(CC(=O)O)CCCCC1)c1ccccn1` gave an Activity (Rattus norvegicus [5]) of 66.45%, an Activity [1] of 42.5% and an IC50 [2] of 194.8 µg/mL (≈ 710 µM). The Activity [3] was 31.1%, the Activity (Rattus norvegicus [9]) was “Non-toxic” and the Activity [4] was 51.6%. The Activity (Rattus norvegicus [6]) was “Non-toxic”, the Activity (Rattus norvegicus [10]) was “Non-toxic” and the Activity (Rattus norvegicus [7]) was “Non-toxic”.
For `C/C(=N\CC1(CC(=O)O)CCCCC1)c1cccnc1`, the Activity (Rattus norvegicus [5]) was 65.61%, the Activity [1] was 42.1% and the IC50 [2] was 198.2 µg/mL (≈ 722 µM). The Activity [3] was 30.8%, the Activity (Rattus norvegicus [9]) was “Non-toxic” and the Activity [4] was 51%. For the same compound, the Activity (Rattus norvegicus [6]) was “Non-toxic”, the Activity (Rattus norvegicus [10]) was “Non-toxic” and the Activity (Rattus norvegicus [7]) was “Non-toxic”.
`O=C(O)CC1(C/N=C/c2ccccc2Cl)CCCCC1` showed an Activity [1] of 56.7%, an IC50 [2] of 119.4 µg/mL (≈ 406 µM) and an Activity [3] of 45.1%. It also gave an Activity [4] of 66.4%.
Work on `O=C(O)CC1(C/N=C/c2ccccc2O)CCCCC1` yielded an Activity [1] of 60.6%, an IC50 [2] of 80.5 µg/mL (≈ 292 µM) and an Activity [3] of 51%. For the same compound, the Activity [4] was 71.3%.
With `O=C1NC(=O)C(c2ccccc2)(c2ccccc2)N1` [PHENYTOIN] the Activity (Rattus norvegicus [5]) was 79.29% and the Activity (Rattus norvegicus [7]) was “Non-toxic”.
`COc1cc(/C=N/CC2(CC(=O)O)CCCCC2)ccc1O` gave an Activity [1] of 64.9%, an IC50 [2] of 59.6 µg/mL (≈ 195 µM) and an Activity [3] of 57.2%. For the same compound, the Activity [4] was 78.2%.
With `O=C(O)CC1(C/N=C/c2c(F)cccc2Cl)CCCCC1` the Activity [1] was 58%, the IC50 [2] was 104 µg/mL (≈ 334 µM) and the Activity [3] was 47.2%. It also gave an Activity [4] of 69.1%.
For `C=NCC1(CC(=O)O)CCCCC1`, the Activity [1] was 40.6%, the IC50 [2] was “Not Active” and the Activity [3] was 30.2%. The Activity [4] was 48.9%.
Compound `COc1ccc(/C=N/CC2(CC(=O)O)CCCCC2)cc1` has an Activity [1] of 59.8%, an IC50 [2] of 94.2 µg/mL (≈ 326 µM) and an Activity [3] of 49.6%. For the same compound, the Activity [4] was 69.5%.
With `O=C(O)CC1(C/N=C/c2ccccc2)CCCCC1` the Activity [1] was 41.3%, the IC50 [2] was “Not Active” and the Activity [3] was 30.1%. For the same compound, the Activity [4] was 49.8%.
`CCOc1ccc(/C(C)=N/CC2(CC(=O)O)CCCCC2)cc1` showed an Activity (Rattus norvegicus [5]) of 12.74%, an Activity [1] of 66.7% and an IC50 [2] of 60.3 µg/mL (≈ 190 µM). For the same compound, the Activity [3] was 55.8%, the Activity [4] was 74.6% and the Activity (Rattus norvegicus [6]) was “Non-toxic”. For the same compound, the Activity (Rattus norvegicus [7]) was “Non-toxic” and the Activity (Rattus norvegicus [8]) was 25%.
In the case of `CCOc1ccc(/C=N/CC2(CC(=O)O)CCCCC2)cc1`, the Activity [1] is reported as 66.4%, the IC50 [2] is reported as 60.5 µg/mL (≈ 199 µM) and the Activity [3] is reported as 55.6%. It also gave an Activity [4] of 74.5%.
With `C/C(=N\CC1(CC(=O)O)CCCCC1)c1cccc(C#N)c1` the Activity (Rattus norvegicus [5]) was 6.36%, the Activity [1] was 41% and the IC50 [2] was “Not Active”. For the same compound, the Activity [3] was 30.6%, the Activity [4] was 49.8% and the Activity (Rattus norvegicus [6]) was “Non-toxic”. For the same compound, the Activity (Rattus norvegicus [7]) was “Non-toxic” and the Activity (Rattus norvegicus [8]) was 25%.
In the case of `C/C(=N\CC1(CC(=O)O)CCCCC1)c1c[nH]c2ccccc12`, the Activity (Rattus norvegicus [5]) is reported as 24.63%, the Activity [1] is reported as 43.8% and the IC50 [2] is reported as 175 µg/mL (≈ 560 µM). The Activity [3] was 32.7%, the Activity (Rattus norvegicus [9]) was “Non-toxic” and the Activity [4] was 55.8%. The Activity (Rattus norvegicus [6]) was “Non-toxic”, the Activity (Rattus norvegicus [7]) was “Non-toxic” and the Activity (Rattus norvegicus [8]) was 25%.
In the case of `C/C=N/CC1(CC(=O)O)CCCCC1`, the Activity [1] is reported as 41%, the IC50 [2] is reported as “Not Active” and the Activity [3] is reported as 31.4%. It also gave an Activity [4] of 49.5%.
